# How the values were obtained:
# [1] = target: T1, Gamma-aminobutyric acid receptor subunit alpha-6/beta-3/gamma-2 (Rattus norvegicus, UniProt P18508+P30191+P63079); assay: (§1) Positive allosteric modulation of rat recombinant GABAA alpha6beta3alpha6-gamma2beta3 receptor expressed in Xenopus laevis oocytes assessed as increase in GABA-induced current amplitude at -80 mV holding potential under more potent phase in presence of GABA EC1 to 1.5 by two-electrode voltage-clamp assay; assay type: cell-based, Oocyte
# T1 sequence (P18508 whole entry): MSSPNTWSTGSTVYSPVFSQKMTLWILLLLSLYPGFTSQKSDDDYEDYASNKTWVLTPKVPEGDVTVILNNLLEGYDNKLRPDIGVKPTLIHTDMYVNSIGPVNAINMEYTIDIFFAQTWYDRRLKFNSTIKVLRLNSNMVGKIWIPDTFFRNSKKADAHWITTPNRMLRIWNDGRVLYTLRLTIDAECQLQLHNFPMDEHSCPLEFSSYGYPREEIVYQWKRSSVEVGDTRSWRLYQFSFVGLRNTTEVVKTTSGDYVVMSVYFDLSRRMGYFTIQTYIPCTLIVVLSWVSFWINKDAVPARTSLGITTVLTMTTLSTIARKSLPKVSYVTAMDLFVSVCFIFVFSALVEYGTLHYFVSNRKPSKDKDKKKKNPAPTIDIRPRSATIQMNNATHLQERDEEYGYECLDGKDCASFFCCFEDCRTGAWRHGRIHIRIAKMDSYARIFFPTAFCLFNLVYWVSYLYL
# T1 sequence (P30191 whole entry): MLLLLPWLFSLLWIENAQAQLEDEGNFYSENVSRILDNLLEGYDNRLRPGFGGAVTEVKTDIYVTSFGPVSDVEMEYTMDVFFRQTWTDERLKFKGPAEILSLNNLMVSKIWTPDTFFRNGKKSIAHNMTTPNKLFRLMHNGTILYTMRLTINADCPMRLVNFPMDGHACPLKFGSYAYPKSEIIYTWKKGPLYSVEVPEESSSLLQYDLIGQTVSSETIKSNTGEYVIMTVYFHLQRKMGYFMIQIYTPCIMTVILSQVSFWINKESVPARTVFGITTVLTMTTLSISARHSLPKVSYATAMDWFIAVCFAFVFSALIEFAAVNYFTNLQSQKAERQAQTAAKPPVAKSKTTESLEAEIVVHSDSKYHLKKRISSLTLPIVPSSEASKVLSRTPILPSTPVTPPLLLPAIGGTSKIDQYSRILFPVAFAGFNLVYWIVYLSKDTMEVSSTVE
# T1 sequence (P63079 whole entry): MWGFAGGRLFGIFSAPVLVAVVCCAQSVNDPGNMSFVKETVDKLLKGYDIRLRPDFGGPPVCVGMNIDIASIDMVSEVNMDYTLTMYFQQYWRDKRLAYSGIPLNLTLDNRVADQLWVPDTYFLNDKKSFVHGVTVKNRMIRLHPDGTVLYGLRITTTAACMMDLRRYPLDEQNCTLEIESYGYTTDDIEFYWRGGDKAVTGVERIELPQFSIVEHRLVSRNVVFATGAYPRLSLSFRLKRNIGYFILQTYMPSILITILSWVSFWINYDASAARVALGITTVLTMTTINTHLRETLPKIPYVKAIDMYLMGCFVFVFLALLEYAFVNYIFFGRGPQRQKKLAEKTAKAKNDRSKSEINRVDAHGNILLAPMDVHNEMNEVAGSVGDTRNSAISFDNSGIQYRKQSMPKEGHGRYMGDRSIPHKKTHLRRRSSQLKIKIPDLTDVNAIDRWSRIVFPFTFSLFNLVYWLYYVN
# [2] = target: T1, Gamma-aminobutyric acid receptor subunit alpha-6/beta-3/gamma-2; assay: as §1, with “less” for “more”; assay type: cell-based, Oocyte
# [3] = target: T2, Gamma-aminobutyric acid receptor subunit alpha-6/beta-3/gamma-2 (Rattus norvegicus) (UniProt P18508+P30191+P63079); assay: Positive allosteric modulation of rat recombinant GABAA alpha6beta3alpha6-gamma2beta3 receptor expressed in Xenopus laevis oocytes assessed as maximal current at -80 mV holding potential under more potent phase in presence of GABA EC1 to 1.5 by two-electrode voltage-clamp assay relative to control; assay type: cell-based; conditions: Oocyte, filed as positive allosteric modulator
# [4] = target: T2, Gamma-aminobutyric acid receptor subunit alpha-6/beta-3/gamma-2 (Rattus norvegicus); assay: Positive allosteric modulation of rat recombinant GABAA alpha6beta3alpha6-gamma2beta3 receptor expressed in Xenopus laevis oocytes assessed as maximal current under less potent phase in presence of GABA EC1 to 1.5 by two-electrode voltage-clamp assay relative to control; assay type: cell-based; conditions: Oocyte, filed as positive allosteric modulator
# [5] = target: T2, Gamma-aminobutyric acid receptor subunit alpha-6/beta-3/gamma-2 (Rattus norvegicus); assay: Positive allosteric modulation of rat recombinant GABAA alpha6beta3alpha6-gamma2beta3 receptor expressed in Xenopus laevis oocytes assessed as maximal efficacy at -80 mV holding potential at 1 nM in presence of GABA EC1 to 1.5 by two-electrode voltage-clamp assay; assay type: cell-based; conditions: Oocyte
# [6] = target: T2, Gamma-aminobutyric acid receptor subunit alpha-6/beta-3/gamma-2 (Rattus norvegicus); assay: Positive allosteric modulation of rat recombinant GABAA alpha6beta3alpha6-gamma2beta3 receptor expressed in Xenopus laevis oocytes assessed as maximal efficacy at -80 mV holding potential at 3 nM in presence of GABA EC1 to 1.5 by two-electrode voltage-clamp assay; assay type: cell-based; conditions: Oocyte
# [7] = target: T2, Gamma-aminobutyric acid receptor subunit alpha-6/beta-3/gamma-2 (Rattus norvegicus); assay: Positive allosteric modulation of rat recombinant GABAA alpha6beta3alpha6-gamma2beta3 receptor expressed in Xenopus laevis oocytes assessed as maximal efficacy at -80 mV holding potential at 10 nM in presence of GABA EC1 to 1.5 by two-electrode voltage-clamp assay; assay type: cell-based; conditions: Oocyte
# [8] = target: T2, Gamma-aminobutyric acid receptor subunit alpha-6/beta-3/gamma-2 (Rattus norvegicus); assay: Positive allosteric modulation of rat recombinant GABAA alpha6beta3alpha6-gamma2beta3 receptor expressed in Xenopus laevis oocytes assessed as maximal efficacy at -80 mV holding potential at 30 nM in presence of GABA EC1 to 1.5 by two-electrode voltage-clamp assay; assay type: cell-based; conditions: Oocyte
# [9] = target: T2, Gamma-aminobutyric acid receptor subunit alpha-6/beta-3/gamma-2 (Rattus norvegicus); assay: Positive allosteric modulation of rat recombinant GABAA alpha6beta3alpha6-gamma2beta3 receptor expressed in Xenopus laevis oocytes assessed as maximal efficacy at -80 mV holding potential at 100 nM in presence of GABA EC1 to 1.5 by two-electrode voltage-clamp assay; assay type: cell-based; conditions: Oocyte, filed as positive allosteric modulator
# [10] = target: T2, Gamma-aminobutyric acid receptor subunit alpha-6/beta-3/gamma-2 (Rattus norvegicus); assay: Positive allosteric modulation of rat recombinant GABAA alpha6beta3alpha6-gamma2beta3 receptor expressed in Xenopus laevis oocytes assessed as maximal efficacy at -80 mV holding potential at 300 nM in presence of GABA EC1 to 1.5 by two-electrode voltage-clamp assay; assay type: cell-based; conditions: Oocyte, filed as positive allosteric modulator
# [11] = target: T2, Gamma-aminobutyric acid receptor subunit alpha-6/beta-3/gamma-2 (Rattus norvegicus); assay: Positive allosteric modulation of rat recombinant GABAA alpha6beta3alpha6-gamma2beta3 receptor expressed in Xenopus laevis oocytes assessed as maximal efficacy at -80 mV holding potential at 1 uM in presence of GABA EC1 to 1.5 by two-electrode voltage-clamp assay; assay type: cell-based; conditions: Oocyte, filed as positive allosteric modulator
# [12] = target: T2, Gamma-aminobutyric acid receptor subunit alpha-6/beta-3/gamma-2 (Rattus norvegicus); assay: Positive allosteric modulation of rat recombinant GABAA alpha6beta3alpha6-gamma2beta3 receptor expressed in Xenopus laevis oocytes assessed as maximal efficacy at -80 mV holding potential at 3 uM in presence of GABA EC1 to 1.5 by two-electrode voltage-clamp assay; assay type: cell-based; conditions: Oocyte, filed as positive allosteric modulator
# [13] = target: T2, Gamma-aminobutyric acid receptor subunit alpha-6/beta-3/gamma-2 (Rattus norvegicus); assay: Positive allosteric modulation of rat recombinant GABAA alpha6beta3alpha6-gamma2beta3 receptor expressed in Xenopus laevis oocytes assessed as maximal efficacy at -80 mV holding potential at 10 uM in presence of GABA EC1 to 1.5 by two-electrode voltage-clamp assay; assay type: cell-based; conditions: Oocyte, filed as positive allosteric modulator
# [14] = target: T2, Gamma-aminobutyric acid receptor subunit alpha-6/beta-3/gamma-2 (Rattus norvegicus); assay: Positive allosteric modulation of rat recombinant GABAA alpha6beta3alpha6-gamma2beta3 receptor expressed in Xenopus laevis oocytes assessed as maximal efficacy at -80 mV holding potential at 30 uM in presence of GABA EC1 to 1.5 by two-electrode voltage-clamp assay; assay type: cell-based; conditions: Oocyte, filed as positive allosteric modulator
# [15] = target: T3, Gamma-aminobutyric acid receptor subunit alpha-1/beta-3/gamma-2 (Rattus norvegicus) (UniProt P18508+P62813+P63079); assay: Positive allosteric modulation of rat recombinant GABAA alpha1beta3alpha1-gamma2beta3 receptor expressed in Xenopus laevis oocytes assessed as maximal efficacy at -80 mV holding potential at 30 uM in presence of GABA EC1 to 1.5 by two-electrode voltage-clamp assay; assay type: cell-based; conditions: Oocyte
# [16] = target: T4, Gamma-aminobutyric acid receptor subunit alpha-1/alpha-6/beta-3/gamma-2 (Rattus norvegicus) (UniProt P18508+P30191+P62813+P63079); assay: Positive allosteric modulation of rat recombinant GABAA alpha6beta3alpha1-gamma2beta3 receptor expressed in Xenopus laevis oocytes assessed as maximal efficacy at -80 mV holding potential at 30 nM in presence of GABA EC1 to 1.5 by two-electrode voltage-clamp assay; assay type: cell-based; conditions: Oocyte
# [17] = target: T4, Gamma-aminobutyric acid receptor subunit alpha-1/alpha-6/beta-3/gamma-2 (Rattus norvegicus); assay: Positive allosteric modulation of rat recombinant GABAA alpha6beta3alpha1-gamma2beta3 receptor expressed in Xenopus laevis oocytes assessed as maximal efficacy at -80 mV holding potential at 100 nM in presence of GABA EC1 to 1.5 by two-electrode voltage-clamp assay; assay type: cell-based; conditions: Oocyte
# [18] = target: T4, Gamma-aminobutyric acid receptor subunit alpha-1/alpha-6/beta-3/gamma-2 (Rattus norvegicus); assay: Positive allosteric modulation of rat recombinant GABAA alpha6beta3alpha1-gamma2beta3 receptor expressed in Xenopus laevis oocytes assessed as maximal efficacy at -80 mV holding potential at 300 nM in presence of GABA EC1 to 1.5 by two-electrode voltage-clamp assay; assay type: cell-based; conditions: Oocyte
# [19] = target: T4, Gamma-aminobutyric acid receptor subunit alpha-1/alpha-6/beta-3/gamma-2 (Rattus norvegicus); assay: Positive allosteric modulation of rat recombinant GABAA alpha6beta3alpha1-gamma2beta3 receptor expressed in Xenopus laevis oocytes assessed as maximal efficacy at -80 mV holding potential at 30 uM in presence of GABA EC1 to 1.5 by two-electrode voltage-clamp assay; assay type: cell-based; conditions: Oocyte, filed as positive allosteric modulator
# [20] = target: T1, Gamma-aminobutyric acid receptor subunit alpha-6/beta-3/gamma-2; assay: Positive allosteric modulation of rat recombinant GABAA alpha6beta3alpha6-gamma2beta3 receptor expressed in Xenopus laevis oocytes assessed as increase in GABA-induced current amplitude at -80 mV holding potential in presence of GABA EC1 to 1.5 by two-electrode voltage-clamp assay; assay type: cell-based, Oocyte
# [21] = target: T2, Gamma-aminobutyric acid receptor subunit alpha-6/beta-3/gamma-2 (Rattus norvegicus); assay: Positive allosteric modulation of rat recombinant GABAA alpha6beta3alpha6-gamma2beta3 receptor expressed in Xenopus laevis oocytes assessed as maximal current at -80 mV holding potential in presence of GABA EC1 to 1.5 by two-electrode voltage-clamp assay relative to control; assay type: cell-based; conditions: Oocyte, filed as positive allosteric modulator
# Oocyte = assay: Positive allosteric modulation of rat recombinant GABAA alpha1beta3alpha1 receptor expressed in Xenopus laevis oocytes assessed as activation of maximal current at -80 mV holding potential in presence of GABA EC1 to 1.5 by two-electrode voltage-clamp assay; assay type: cell-based; conditions: filed as positive allosteric modulator
# [22] = target: T3, Gamma-aminobutyric acid receptor subunit alpha-1/beta-3/gamma-2 (Rattus norvegicus); assay: Positive allosteric modulation of rat recombinant GABAA alpha1beta3alpha1-gamma2beta3 receptor expressed in Xenopus laevis oocytes assessed as maximal efficacy at -80 mV holding potential at 30 nM in presence of GABA EC1 to 1.5 by two-electrode voltage-clamp assay; assay type: cell-based; conditions: Oocyte
# [23] = target: T3, Gamma-aminobutyric acid receptor subunit alpha-1/beta-3/gamma-2 (Rattus norvegicus); assay: Positive allosteric modulation of rat recombinant GABAA alpha1beta3alpha1-gamma2beta3 receptor expressed in Xenopus laevis oocytes assessed as maximal efficacy at -80 mV holding potential at 100 nM in presence of GABA EC1 to 1.5 by two-electrode voltage-clamp assay; assay type: cell-based; conditions: Oocyte
# [24] = target: T3, Gamma-aminobutyric acid receptor subunit alpha-1/beta-3/gamma-2 (Rattus norvegicus); assay: Positive allosteric modulation of rat recombinant GABAA alpha1beta3alpha1-gamma2beta3 receptor expressed in Xenopus laevis oocytes assessed as maximal efficacy at -80 mV holding potential at 300 nM in presence of GABA EC1 to 1.5 by two-electrode voltage-clamp assay; assay type: cell-based; conditions: Oocyte
# [25] = target: T2, Gamma-aminobutyric acid receptor subunit alpha-6/beta-3/gamma-2 (Rattus norvegicus); assay: Positive allosteric modulation of rat recombinant GABAA alpha6beta3gamma2 receptor expressed in Xenopus laevis oocytes assessed as potentiation of GABA-induced response under less potent current at -80 mV holding potential at 30 uM in presence of GABA EC1 to 1.5 by two-electrode voltage-clamp assay; assay type: cell-based; conditions: Oocyte, filed as positive allosteric modulator
# [26] = target: T2, Gamma-aminobutyric acid receptor subunit alpha-6/beta-3/gamma-2 (Rattus norvegicus); assay: Positive allosteric modulation of rat recombinant GABAA alpha6beta3gamma2 receptor expressed in Xenopus laevis oocytes assessed as potentiation of GABA-induced response under more potent current at -80 mV holding potential at 100 nM in presence of GABA EC1 to 1.5 by two-electrode voltage-clamp assay; assay type: cell-based; conditions: Oocyte, filed as positive allosteric modulator
# [27] = target: T2, Gamma-aminobutyric acid receptor subunit alpha-6/beta-3/gamma-2 (Rattus norvegicus); assay: Positive allosteric modulation of rat recombinant GABAA alpha6beta3gamma2 receptor expressed in Xenopus laevis oocytes assessed as potentiation of GABA-induced response under more potent current at -80 mV holding potential at 30 uM in presence of GABA EC1 to 1.5 by two-electrode voltage-clamp assay; assay type: cell-based; conditions: Oocyte, filed as positive allosteric modulator
# [28] = filed as positive allosteric modulator
Structure (SMILES),EC50 [1] [nM],EC50 [2] [µM],%max [3] [%],%max [4] [%],Efficacy [5] [%],Efficacy [6] [%],Efficacy [7] [%],Efficacy [8] [%],Efficacy [9] [%],Efficacy [10] [%],Efficacy [11] [%],Efficacy [12] [%],Efficacy [13] [%],Efficacy [14] [%],Efficacy [16] [%],Efficacy [17] [%],Efficacy [18] [%],Efficacy [19] [%],EC50 [20] [µM],%max [21] [%],other results
CCc1ccc2c3nn(-c4ccc(OC)cc4)c(=O)c-3c[nH]c2c1,23,299,57,4980,3,4,21,29,54,74,127,216,621,1940,5,5,7,1510,–,–,"Efficacy [15, 28]: 1040%"
COc1ccc(-n2nc3c4ccccc4[nH]cc-3c2=O)cc1,–,–,–,–,–,1,8,19,57,63,152,214,751,1360,–,–,–,–,9,1480,–
CN1C(=O)CN=C(c2ccccc2)c2cc(Cl)ccc21,–,–,–,–,–,–,–,–,–,–,–,–,–,–,–,–,–,–,–,–,Activity (Oocyte): 30 nanoampere
COc1ccc(-n2nc3c4ccc(C)cc4[nH]cc-3c2=O)cc1,–,–,–,–,25,31,–,–,100,149,234,456,1020,1310,–,–,–,–,13,2050,"Efficacy [7, 28]: 40%; Efficacy [8, 28]: 60%"
COc1ccc(-n2nc3c4ccc(C(C)=O)cc4[nH]cc-3c2=O)cc1,50,735,82,2210,9,13,27,31,52,67,101,127,205,426,3,3,11,338,–,–,Efficacy [22]: 1%; Efficacy [23]: 1%; Efficacy [24]: 1%; Efficacy [15]: 10%; Activity [25]: 80%; Activity [26]: 62%; Activity [27]: 280%

# From ChEMBL document CHEMBL5252552, “Defined concatenated α6α1β3γ2 GABAA receptor constructs reveal dual action of pyrazoloquinolinone allosteric modulators” (Bioorg Med Chem, 2019)
